Results as given in patent publication US8192962B2, “Processes for detecting toxic substances” (Daikin Industries, Ltd., priority 2001, dated 2012).

System: DNA repair protein genes
Experiment: DNA chip mRNA expression in yeast, DNA repair protein genes (Table 3)
Assay type: cell-based, Saccharomyces cerevisiae S288C
Settings: incubated two hours, concentrations as in the 1st table
In short: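 Value is the scanned fluorescence intensity ratio of exposed versus chemical-free cells. Log-phase S288C yeast in YPD at 25° C. received one toxic substance for two hours, dosed to slow growth without killing; Cy3/Cy5-labeled cDNA from oligo-dT-purified mRNA was hybridized to a whole-genome chip at 65° C.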

## CCCCCCCCCCCCOS(=O)(=O)[O-].[Na+] [(18), sodium lauryl sulfate]
Yeast gene YAL015C
  The level of expressed mRNA in the presence of chemical substance/The level of expressed mRNA in the absence of chemical substance: 1.2
Yeast gene YAR007C
  The level of expressed mRNA in the presence of chemical substance/The level of expressed mRNA in the absence of chemical substance: 1.0
Yeast gene YBL019W
  The level of expressed mRNA in the presence of chemical substance/The level of expressed mRNA in the absence of chemical substance: 1.1
Yeast gene YBR073W
  The level of expressed mRNA in the presence of chemical substance/The level of expressed mRNA in the absence of chemical substance: 0.8
Yeast gene YBR272C
  The level of expressed mRNA in the presence of chemical substance/The level of expressed mRNA in the absence of chemical substance: 1.2
Yeast gene YCR014C
  The level of expressed mRNA in the presence of chemical substance/The level of expressed mRNA in the absence of chemical substance: 0.9
Yeast gene YDL017W
  The level of expressed mRNA in the presence of chemical substance/The level of expressed mRNA in the absence of chemical substance: 1.0
Yeast gene YDL059C
  The level of expressed mRNA in the presence of chemical substance/The level of expressed mRNA in the absence of chemical substance: 0.9
Yeast gene YDL200C
  The level of expressed mRNA in the presence of chemical substance/The level of expressed mRNA in the absence of chemical substance: 1.6
Yeast gene YDR054C
  The level of expressed mRNA in the presence of chemical substance/The level of expressed mRNA in the absence of chemical substance: 1.4
Yeast gene YDR369C
  The level of expressed mRNA in the presence of chemical substance/The level of expressed mRNA in the absence of chemical substance: 0.7
Yeast gene YEL019C
  The level of expressed mRNA in the presence of chemical substance/The level of expressed mRNA in the absence of chemical substance: 0.9
Yeast gene YEL037C
  The level of expressed mRNA in the presence of chemical substance/The level of expressed mRNA in the absence of chemical substance: 0.8
Yeast gene YER162C
  The level of expressed mRNA in the presence of chemical substance/The level of expressed mRNA in the absence of chemical substance: 0.9
Yeast gene YFL014W
  The level of expressed mRNA in the presence of chemical substance/The level of expressed mRNA in the absence of chemical substance: 8.8
Yeast gene YGL058W
  The level of expressed mRNA in the presence of chemical substance/The level of expressed mRNA in the absence of chemical substance: 0.7
Yeast gene YGL091C
  The level of expressed mRNA in the presence of chemical substance/The level of expressed mRNA in the absence of chemical substance: 1.8
Yeast gene YGL127C
  The level of expressed mRNA in the presence of chemical substance/The level of expressed mRNA in the absence of chemical substance: 1.2
Yeast gene YGL163C
  The level of expressed mRNA in the presence of chemical substance/The level of expressed mRNA in the absence of chemical substance: 0.8
Yeast gene YGL249W
  The level of expressed mRNA in the presence of chemical substance/The level of expressed mRNA in the absence of chemical substance: 1.0
Yeast gene YGR180C
  The level of expressed mRNA in the presence of chemical substance/The level of expressed mRNA in the absence of chemical substance: 1.9
Yeast gene YGR231C
  The level of expressed mRNA in the presence of chemical substance/The level of expressed mRNA in the absence of chemical substance: 1.5
Yeast gene YGR258C
  The level of expressed mRNA in the presence of chemical substance/The level of expressed mRNA in the absence of chemical substance: 0.9
Yeast gene YHR164C
  The level of expressed mRNA in the presence of chemical substance/The level of expressed mRNA in the absence of chemical substance: 1.0
Yeast gene YIL036W
  The level of expressed mRNA in the presence of chemical substance/The level of expressed mRNA in the absence of chemical substance: 1.3
Yeast gene YIL072W
  The level of expressed mRNA in the presence of chemical substance/The level of expressed mRNA in the absence of chemical substance: 1.1
Yeast gene YIL143C
  The level of expressed mRNA in the presence of chemical substance/The level of expressed mRNA in the absence of chemical substance: 0.9
Yeast gene YIL153W
  The level of expressed mRNA in the presence of chemical substance/The level of expressed mRNA in the absence of chemical substance: 0.7
Yeast gene YIR002C
  The level of expressed mRNA in the presence of chemical substance/The level of expressed mRNA in the absence of chemical substance: 1.2
Yeast gene YJL026W
  The level of expressed mRNA in the presence of chemical substance/The level of expressed mRNA in the absence of chemical substance: 2.1
Yeast gene YJR046W
  The level of expressed mRNA in the presence of chemical substance/The level of expressed mRNA in the absence of chemical substance: 0.7
Yeast gene YJR052W
  The level of expressed mRNA in the presence of chemical substance/The level of expressed mRNA in the absence of chemical substance: 1.3
Yeast gene YKL145W
  The level of expressed mRNA in the presence of chemical substance/The level of expressed mRNA in the absence of chemical substance: 1.5
Yeast gene YLR103C
  The level of expressed mRNA in the presence of chemical substance/The level of expressed mRNA in the absence of chemical substance: 1.4
Yeast gene YLR233C
  The level of expressed mRNA in the presence of chemical substance/The level of expressed mRNA in the absence of chemical substance: 1.2
Yeast gene YLR288C
  The level of expressed mRNA in the presence of chemical substance/The level of expressed mRNA in the absence of chemical substance: 1.3
Yeast gene YML032C
  The level of expressed mRNA in the presence of chemical substance/The level of expressed mRNA in the absence of chemical substance: 1.0
Yeast gene YML058W
  The level of expressed mRNA in the presence of chemical substance/The level of expressed mRNA in the absence of chemical substance: 1.5
Yeast gene YMR035W
  The level of expressed mRNA in the presence of chemical substance/The level of expressed mRNA in the absence of chemical substance: 2.4
Yeast gene YMR072W
  The level of expressed mRNA in the presence of chemical substance/The level of expressed mRNA in the absence of chemical substance: 1.9
Yeast gene YMR096W
  The level of expressed mRNA in the presence of chemical substance/The level of expressed mRNA in the absence of chemical substance: 1.0
Yeast gene YMR284W
  The level of expressed mRNA in the presence of chemical substance/The level of expressed mRNA in the absence of chemical substance: 1.3
Yeast gene YNL213C
  The level of expressed mRNA in the presence of chemical substance/The level of expressed mRNA in the absence of chemical substance: 1.2
Yeast gene YNL250W
  The level of expressed mRNA in the presence of chemical substance/The level of expressed mRNA in the absence of chemical substance: 1.0
Yeast gene YNL261W
  The level of expressed mRNA in the presence of chemical substance/The level of expressed mRNA in the absence of chemical substance: 1.0
Yeast gene YNL312W
  The level of expressed mRNA in the presence of chemical substance/The level of expressed mRNA in the absence of chemical substance: 1.1
Yeast gene YOL043C
  The level of expressed mRNA in the presence of chemical substance/The level of expressed mRNA in the absence of chemical substance: 1.0
Yeast gene YOR005C
  The level of expressed mRNA in the presence of chemical substance/The level of expressed mRNA in the absence of chemical substance: 1.0
Yeast gene YOR386W
  The level of expressed mRNA in the presence of chemical substance/The level of expressed mRNA in the absence of chemical substance: 1.7
Yeast gene YPL022W
  The level of expressed mRNA in the presence of chemical substance/The level of expressed mRNA in the absence of chemical substance: 0.9
Yeast gene YPL164C
  The level of expressed mRNA in the presence of chemical substance/The level of expressed mRNA in the absence of chemical substance: 1.0
Yeast gene YPL194W
  The level of expressed mRNA in the presence of chemical substance/The level of expressed mRNA in the absence of chemical substance: 0.8
Yeast gene YPR025C
  The level of expressed mRNA in the presence of chemical substance/The level of expressed mRNA in the absence of chemical substance: 1.5
